Holding throughout (details): in vivo
Data set [1] in a line: Retention time of the compound in Beagle dog urine treated with [14C]-AMG 221 at 2 mg/kg, po measured over 24 hrs by LC-MS/HPLC radiometric analysis. Also noted: dose 2 mg/kg, route oral. Format: ADME, organism-based, Canis lupus familiaris.
Data set [2] in a line: Drug level in Sprague-Dawley rat urine treated with [14C]-(S)-2-((1R,2S,4R,5S)-5-hydroxybicyclo[2.2.1]heptan-2-ylamino)-5-isopropyl-5-methylthiazol-4(5H)-one at 5 mg/kg, po measured over 48 hrs by LC-MS/MS analysis. Format: ADME, organism-based. Further details: dose 5 mg/kg, route oral.
Another data set has as its system Rattus norvegicus. Put plainly: Total drug recovery in female Sprague-Dawley rat treated with [14C]-AMG 221 at 2 mg/kg, po measured over 48 hrs by liquid scintillation counting analysis. Format: ADME, organism-based. Further details: dose 2 mg/kg, route oral.
Data set [3] is described as follows: Drug level in Sprague-Dawley rat feces treated with [14C]AMG221 at 2 mg/kg, po measured over 24 hrs by LC-MS/HPLC radiometric analysis. It is filed as ADME, organism-based. Further details: dose 2 mg/kg, route oral.
Data set [4] can be described thus: Drug excretion in male Sprague-Dawley rat feces treated with [14C]-AMG 221 at 2 mg/kg, po measured over 24 hrs by LC-MS/HPLC radiometric analysis. It is filed as ADME, organism-based. Further details: dose 2 mg/kg, route oral.
Data set [5] in a line: Retention time of the compound in Sprague-Dawley rat feces treated with [14C]-AMG 221 at 2 mg/kg, po measured over 48 hrs by LC-MS/HPLC radiometric analysis. Format: ADME, organism-based. Also noted: dose 2 mg/kg, route oral.
Data set [6] is described as follows: Drug excretion in female Sprague-Dawley rat feces treated with [14C]-AMG 221 at 2 mg/kg, po measured over 24 hrs by LC-MS/HPLC radiometric analysis. It is filed as ADME, organism-based. Further details: dose 2 mg/kg, route oral.

In data set [1], `CC(C)[C@]1(C)SC(N[C@H]2C[C@H]3C[C@@H]2C[C@@H]3O[C@@H]2O[C@H](C(=O)O)[C@@H](O)[C@H](O)[C@H]2O)=NC1=O` came in with a Retention_time of 20.6 min. Further, in data set [2], the Drug metabolism result is given as “metabolite_detected”. The Drug recovery in the data set with Rattus norvegicus stood at 0.2%.
As to `CC(C)[C@]1(C)SC(N[C@H]2C[C@H]3C[C@@H]2C[C@@H]3OS(=O)(=O)O)=NC1=O`, the Drug metabolism result in data set [3] is reported as “metabolite_detected”. Also, the Drug excretion entry in data set [4] is “metabolite_not_detected”; in data set [6], 6%. In data set [5], this compound returned a Retention_time of 23.2 min. This compound also came in with a Drug recovery with Rattus norvegicus of 6%.

The values above are taken from ChEMBL document CHEMBL3525943, “Regiospecific and stereospecific triangulation of the structures of metabolites formed by sequential metabolism at multiple prochiral centers” (Drug Metab Dispos, 2012).
